Measured values: the NIST ThermoML archive (doi:10.1021/acs.jced.5b00594)
± gives the expanded uncertainty stated by the source.

Assay: wn = mass fraction of the nth substance listed
Settings: 313.15 K, 100 kPa, Liquid, Pycnometric method

O=S(=O)([O-])O.[K+] [hydrogen potassium sulfate] + O
mass density (w1 = 0.4722): 1391 ± 4 kg/m3

O=S(=O)([O-])O.[K+] [hydrogen potassium sulfate] + O=S(=O)(O)O
mass density (w2 = 0.6151): 1832 ± 6 kg/m3
